Source: paper PMC12643354, “From Oxygen to Tellurium: The Impact of the Chalcogen on Nucleophilicities and Basicities of Isochalcogenourea Catalysts” (Angewandte Chemie (International Ed. in English), 2025)

Key:
[1] = Kinetics of IChU reactions with reference electrophile (thq)2CH+ (stopped-flow photometry); assay type: physicochemical; settings: E = −8.22, dichloromethane, 20 °C
Excerpt: (§1) In order to systematically investigate the influence of the chalcogen atom on the nucleophilicity of DHPB‐derived IChUs (Ch = O, S, Se, and Te), we utilized Mayr's benzhydrylium methodology.^[ [107] ^]
(§2) In accordance with observations in previous studies on ITU reactivity,^[ [119] ^] mixing the strongly colored benzhydrylium tetrafluoroborates 18 with excess IChUs in dichloromethane gave rise to decolorization of the solutions due to the formation of isochalcogenouronium tetrafluoroborates 19, which are colourless (Figure 3a). […] To establish pseudo first‐order conditions and to secure a sufficient decay of the benzhydrylium's absorbance during the course of the reactions, the IChUs were employed at higher concentrations than the benzhydrylium ions. First‐order rate constants k obs (s^−1) were determined by fitting the mono‐exponential decay function in Equation (2) to the decreasing absorbance (A) of 18 during their reaction with the IChUs as exemplified for the reaction of ITeU3 with (ind)2CH^+ in Figure 3b. […]
(§3) First‐order rate constants k obs correlated linearly with the IChU concentration. Therefore, second‐order rate constants k 2 (L mol^−1 s^−1) were determined from the slope of the linear regression curves (Figure 3c ^[ [95] ^]). […]

[2] = Brønsted basicity pKaH by chemical shift imaging NMR method in DMSO and MeCN; settings: for Brønsted basicity pKaH(DMSO): in DMSO; for Brønsted basicity pKaH(MeCN): in MeCN
Experimental: Recently, Wiskur's group reported potentiometrically determined pK aH values (that is, the pK a of the conjugate acids) of achiral ITUs based on the BTM and DHPB scaffolds in aqueous media.^[ [89], [128] ^] […] In this work, we applied this NMR spectroscopic method to determine the pK aH values of further IChUs in DMSO and MeCN (Supporting Information).
First, a stock solution containing the analyte, two basic indicators and tetramethyl silane was prepared with the respective solvent (DMSO or acetonitrile).
Then 5-10 mg of acid were weighed into a NMR tube and subsequently covered with glass beads.
Figure S50: 5-10 mg of acid in Figure S51: Cover with 1 mm
Afterwards, 550 μL of the stock solution was layered carefully over the glass beads and the acid. The sample is then put in a 28 °C water bath (for DMSO) for 20 - 24h or left on the bench at 22 °C (for acetonitrile) for 1.5 - 2 h and then the NMR measurement was carried out at 20 °C.
Figure S52: Overlay the acid with the Figure S54: Visualized gradient after stock solution of two indicators and the 18h in DMSO (with Bromthymolblue) […]
Figure S53: Development of gradients in temperated water S145 […]
13.4 Indicator and Acid Data
Table S67: Limiting shifts (δH for the fully protonated and δL for the free base), pKas and abbreviations of indicators and acids in acetonitrile.
Table S68: Limiting shifts (δH for the fully protonated and δL for the free base), pKas and abbreviations of indicators

[3] = Kinetics of IChU reactions with reference electrophile (mpa)2CH+ (stopped-flow photometry); assay type: physicochemical; settings: E = −5.89, dichloromethane, 20 °C
Excerpt: as §1, §2, §3

[4] = Kinetics of IChU reactions with reference electrophile (lil)2CH+ (stopped-flow photometry); assay type: physicochemical; settings: E = −10.04, dichloromethane, 20 °C
Excerpt: as §1, §2, §3

[5] = Kinetics of IChU reactions with reference electrophile (dpa)2CH+ (stopped-flow photometry); assay type: physicochemical; settings: E = −4.72, dichloromethane, 20 °C
Excerpt: as §1, §2, §3

[6] = Kinetics of IChU reactions with reference electrophile (mor)2CH+ (stopped-flow photometry); assay type: physicochemical; settings: E = −5.53, dichloromethane, 20 °C
Excerpt: as §1, §2, §3

SMILES: c1ccc2c(c1)[Se]C1=NCCCN12 [ISeU3, SeDHPB]
- Second-order rate constant k2 exptl [1]: 38100 M⁻¹ s⁻¹
- Brønsted basicity pKaH(DMSO) [2]: 8.3
- Brønsted basicity pKaH(MeCN) [2]: 17.9
- Second-order rate constant k2 exptl [3]: 1.16e+06 M⁻¹ s⁻¹
- Second-order rate constant k2 exptl [4]: 1980 M⁻¹ s⁻¹

SMILES: c1ccc2c(c1)OC1=NCCCN12 [IU3, ODHPB]
- Brønsted basicity pKaH(DMSO) [2]: 6.5
- Brønsted basicity pKaH(MeCN) [2]: 16.9
- Second-order rate constant k2 exptl [3]: 129000 M⁻¹ s⁻¹
- Second-order rate constant k2 exptl [5]: 896000 M⁻¹ s⁻¹
- Second-order rate constant k2 exptl [6]: 185000 M⁻¹ s⁻¹
